PMC12195740, “Discovery of Novel Imidazothiazole-Based Hydroxamic Acid Derivatives as Potent Indoleamine 2,3-Dioxygenase 1 and Histone Deacetylase 6 Dual Inhibitors” (Molecules, 2025)

Columns and labels:
rhIDO1 = target: T1, rhIDO1 (Homo sapiens, UniProt P14902); assay: IDO1 inhibition assay; type: biochemical; conditions: means ± S.D. of three independent experiments
T1 construct: purchased
Protocol: Section S1. Biological assays […]
Section S 1.2 IDO1 inhibition assays
IDO1 inhibition assays were carried out according to the manufacturers’ procedures, as described previously. The standard assay mixture (100 μL) contained 50 mM of potassium phosphate buffer (pH = 6.5), 10 mM ascorbate, 10 μM methylene blue, 100 μg/mL catalase, 1 mM L-tryptophan and 10 μg/mL of rhIDO1. The plate was incubated at 37 °C in a dark environment, and reactions were terminated after 60 min by the addition of 50 μL of fluorogenic developer solution and further incubated at 45 °C in dark for 3 h. Then, the plate was allowed to cool to room temperature for at least 1 h. After centrifugation at 1500g for 5 min at 20 °C, the fluorescence […]
M1000 Pro, Tecan US, Morrisville, NC) in an end-point mode. […]

HDAC1 = HDAC1 (Homo sapiens, UniProt Q13547); assay: HDAC isoform selectivity assay, HDAC1; type: biochemical
HDAC11 = target: T2, HDAC11 (Homo sapiens, UniProt Q96DB2); assay: HDAC isoform selectivity assay, HDAC11; type: biochemical; conditions: read-out: HDAC11 % inhibition rate at 10 μM
T2 sequence (Q96DB2 1-347): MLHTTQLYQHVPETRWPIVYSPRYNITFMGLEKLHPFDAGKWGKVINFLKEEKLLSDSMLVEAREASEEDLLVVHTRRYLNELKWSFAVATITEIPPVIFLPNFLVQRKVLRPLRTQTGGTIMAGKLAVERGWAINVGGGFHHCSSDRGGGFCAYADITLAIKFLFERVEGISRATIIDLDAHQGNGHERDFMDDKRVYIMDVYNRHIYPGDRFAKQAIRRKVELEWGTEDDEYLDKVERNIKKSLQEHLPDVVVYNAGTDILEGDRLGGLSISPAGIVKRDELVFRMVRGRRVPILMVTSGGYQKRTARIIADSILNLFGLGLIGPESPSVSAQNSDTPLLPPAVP

CT26 tumors = assay: In vivo antitumor efficacy, CT26 tumor-bearing BALB/c mice; conditions: 150 mg/kg ip every 3 days for 21 days
Protocol: After that, fixed cells were washed with PBS. Then, cells were isolated by centrifugation and stained with propidium iodide (KeyGEN BioTECH, China) for 30 min. The samples were measured using flow cytometry and analyzed by Flowjo software.
Section S 1.6 Western blot assay […]
earlier were obtained by lysing the cells in ice-cold RIPA buffer with protease and phosphatase inhibitor and stored at -20°C for future use. The protein concentrations were quantified by the Bradford method (Bio-Rad) using a Multimode Varioscan instrument (Thermo Fischer Scientific). […]
and transferred to a polyvinylidene difluoride (PVDF) membrane (Amersham Biosciences). After the membrane was blocked at room temperature for 2 h in blocking solution, primary antibody was added and incubated at 4°C overnight. Ac-α-tubulin, Ac-histone H3 and GAPDH antibodies were purchased from Imgenex, USA. After three TBST washes, the membrane was incubated with corresponding horseradish peroxidase-labeled secondary antibody (1:2,000) (Santa Cruz) at room temperature for 1 h. Membranes were washed with TBST three times for 15 min and the protein bands were detected with chemiluminescence reagent (Thermo Fischer Scientific). The X-ray films were developed using developer and fixed with fixer solution.
Section S 1.7 In vivo antitumor efficacy […]
line CT-26 in BALB/c mice as described previously. […]

MDA-MB-231 cells = assay: Cell viability (MTT) assay, MDA-MB-231; conditions: Homo sapiens, MDA-MB-231, 48 h, read-out: Antiproliferative IC50, MDA-MB-231
Protocol: Section S 1.3 Cell viability assays
Cell Bank at the Chinese Academy of Sciences.
DMEM and FBS were obtained from Gibco-Thermo (BRL Co. Ltd., USA).
another 48 h. The cells were stained with 10 μl of MTT at incubator for approximately 4 h. The medium was discarded and replaced by 100 mL DMSO. The O.D. value was read at 570/630 nm with a spectrophotometer.

T1 sequence (P14902 whole entry): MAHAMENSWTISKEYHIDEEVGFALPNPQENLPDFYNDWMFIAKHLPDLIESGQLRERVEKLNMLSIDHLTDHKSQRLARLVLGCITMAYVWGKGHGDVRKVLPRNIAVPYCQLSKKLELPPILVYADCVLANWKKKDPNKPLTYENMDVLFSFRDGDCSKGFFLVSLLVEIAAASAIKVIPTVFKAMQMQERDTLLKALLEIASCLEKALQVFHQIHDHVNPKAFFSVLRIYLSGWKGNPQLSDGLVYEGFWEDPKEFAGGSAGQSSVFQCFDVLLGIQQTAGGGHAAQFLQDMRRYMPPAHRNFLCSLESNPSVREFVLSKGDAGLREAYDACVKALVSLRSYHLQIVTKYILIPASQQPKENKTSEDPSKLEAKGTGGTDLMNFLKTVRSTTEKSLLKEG
Sequence of HDAC1 (Q13547 whole entry, species assumed, canonical isoform): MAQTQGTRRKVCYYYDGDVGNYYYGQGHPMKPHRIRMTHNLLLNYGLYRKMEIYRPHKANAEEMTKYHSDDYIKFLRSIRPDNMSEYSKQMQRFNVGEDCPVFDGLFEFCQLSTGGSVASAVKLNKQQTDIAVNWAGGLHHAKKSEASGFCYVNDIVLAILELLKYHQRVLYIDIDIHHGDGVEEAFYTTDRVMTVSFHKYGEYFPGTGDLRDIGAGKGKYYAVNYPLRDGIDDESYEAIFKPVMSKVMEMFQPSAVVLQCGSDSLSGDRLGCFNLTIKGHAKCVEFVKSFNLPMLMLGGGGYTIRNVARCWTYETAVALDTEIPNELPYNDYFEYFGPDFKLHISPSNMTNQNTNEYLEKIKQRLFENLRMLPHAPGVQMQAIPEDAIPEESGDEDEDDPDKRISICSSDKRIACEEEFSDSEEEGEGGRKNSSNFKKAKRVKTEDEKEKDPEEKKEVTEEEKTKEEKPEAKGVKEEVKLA

IC50 (rhIDO1): 86 ± 20 nM
IC50 (HDAC1): 1080 nM
inhibition at 10 µM (HDAC11): 24.4%
IC50 (MDA-MB-231 cells): 43700 ± 1890 nM
SMILES: O=C(CCCCCCNc1ccc(NC(=O)c2cnc3scc(-c4ccc(Br)cc4)n23)cc1)NO [Compound 10e, 3-(4-Bromophenyl)-N-{4-[(7-(hydroxyamino)-7-oxoheptyl)amino]phenyl}imidazo[2,1-b]thiazole-5-carboxamide]
relative tumor volume growth rate (T/C) (CT26 tumors): 38.32%
tumor growth inhibition (TGI) (CT26 tumors): 60.2%
